Columns and labels:
[1] = Release (dissolution) profile of capsules, USP Apparatus 2 (paddle) at 50 rpm, 500 mL aqueous sodium phosphate 0.05 M, pH 6.8; type: physicochemical; conditions: for Release rate (percentage of Compound 1 released): Table 3b; for mean value (n =4) of % of Compound 1 released: Table 3g-1, Storage Time = 0; for mean value (n =4) of % of Compound 1 released / mean value (n = 41) of % of Compound 1 released: size 4 capsule 0.5 mg Compound 1, Poloxamer 188:food grade GMS 70:30; for mean value (n = 41) of % of Compound 1 released: Table 3g-2 first line (title: Storage Time = 2 weeks; values equal Table 3g-1)
Source text: USP Apparatus 2 (Paddle Apparatus) is described, for example, in the United States Pharmacopeial Convention, Feb. 1, 2012, Chapter <711> (“Dissolution”), incorporated by reference herein in its entirety. See http://www.usp.org/sites/default/files/usp_pdf/EN/USPNF/revisions/m99470-gc_711.pdf. The assembly from Apparatus 1 is used, except that a paddle formed from a blade and a shaft is used as the stirring element. The shaft is positioned so that its axis is not more than 2 mm from the vertical axis of the vessel at any point and rotates smoothly without significant wobble that could affect the results. The vertical center line of the blade passes through the axis of the shaft so that the bottom of the blade is flush with the bottom of the shaft. A distance of 25±2 mm between the bottom of the blade and the inside bottom of the vessel is maintained during the test. The metallic or suitably inert, rigid blade and shaft comprise a single entity. A suitable two-part detachable design may be used provided the assembly remains firmly engaged during the test. The paddle blade and shaft may be coated with a suitable coating so as to make them inert. The dosage unit is allowed to sink to the bottom of the vessel before rotation of the blade is started. A small, loose piece of nonreactive material, such as not more than a few turns of wire helix, may be attached to dosage units that would otherwise float. Other validated sinker devices may be used.
Unless otherwise specified, the release profiles for capsules were measured using USP Apparatus 2 (paddle).
All release profiles disclosed in Tables 3c-3p were measured with USP Apparatus 2 (paddle) at 50 rpm in 500 mL of aqueous sodium phosphate at a concentration of 0.05 M (pH=6.8). The values in a given table relate to capsules obtained from the same batch. Values shown represent mean values over a number of dissolution tests (“n” in each table) in each case.

[2] = Example 7A: open-label single-dose pharmacokinetic study, modified-release tablet vs immediate-release capsule, fasted healthy subjects; type: in vivo, human
Experimental: A. An open-label, fixed sequence, non-randomized study in two cohorts of healthy male and non-pregnant, non-lactating female subjects was conducted. Two cohorts with twelve subjects in each were enrolled to ensure data in ten evaluable subjects per cohort.
Each subject in Cohort 1 received each of the following regimens, in the fasted state, in a sequential manner over four treatment periods: • Regimen A (0.03 mg immediate-release Compound 1): 1×0.03 mg Compound 1 immediate-release capsule. • Regimen B (0.06 mg modified-release Compound 1): 1×0.06 mg Compound 1 modified-release tablet as disclosed herein. • Regimen C (0.12 mg modified-release Compound 1): 2×0.06 mg Compound 1 modified-release tablets as disclosed herein. • Regimen D (0.18 mg modified-release Compound 1) 3×0.06 mg Compound 1 modified-release tablets as disclosed herein.
Subjects received each regimen in the morning of Day 1, following an overnight fast of a minimum of 8 hours. PK samples were taken from subjects at 72 hours post-dose. There was a minimum washout period of 7 days between each administration of investigational medicinal product (IMP) (i.e., selexipag film-coated tablet(s), Compound 1 immediate-release capsule(s), and/or Compound 1 modified-release tablet(s)).
Venous blood samples were withdrawn at regular time intervals. Plasma concentration data for Compound 1 and the selexipag parent and active metabolite were analyzed using appropriate non-compartmental techniques to obtain estimates of one or more of the following parameters:
One or more of the above pharmacokinetic parameters were determined at one or more of the following time points: pre-dose and (referring to hours after administration): 0.5, 1, 1.5, 2, 3, 4, 5, 6, 8, 10, 12, 16, 20, 24, 36, 48, and 72 hours.

[3] = Plasma pharmacokinetics of Compound 1 stated in background and description (initial clinical studies); type: in vivo; conditions: immediate-release capsule formulation
[4] = modified-release compared to immediate-release formulation
[5] = modified-release tablet (compared with immediate-release capsule)

O=C(O)COC[C@H]1CC[C@H](COC(=O)N(c2ccccc2)c2ccc(Cl)cc2)CC1 [Compound 1, 2-(((1r,4r)-4-(((4-chlorophenyl)(phenyl)carbamoyloxy)methyl)cyclohexyl)methoxy)acetic acid]
Release rate (percentage of Compound 1 released) ([1]; capsule 0.04 mg Compound 1, Poloxamer 188:food grade GMS 50:50, 18 hrs curing (50° C.), 240 min): 72.6%
Release rate (percentage of Compound 1 released) ([1]; capsule 0.04 mg Compound 1, Poloxamer 188:food grade GMS 50:50, 18 hrs curing (50° C.), 360 min): 89.2%
Release rate (percentage of Compound 1 released) ([1]; capsule 0.04 mg Compound 1, Poloxamer 188:food grade GMS 50:50, 18 hrs curing (50° C.), 480 min): 93.5%
Release rate (percentage of Compound 1 released) ([1]; capsule 0.04 mg Compound 1, Poloxamer 188:food grade GMS 50:50, 18 hrs curing (50° C.), 600 min): 95.7%
Release rate (percentage of Compound 1 released) ([1]; capsule 0.04 mg Compound 1, Poloxamer 188:food grade GMS 50:50, 18 hrs curing (50° C.), 720 min): 96.9%
Release rate (percentage of Compound 1 released) ([1]; capsule 0.04 mg Compound 1, Poloxamer 188:food grade GMS 50:50, 18 hrs curing (50° C.), 735 min): 95.6%
Release rate (percentage of Compound 1 released) ([1]; capsule 0.04 mg Compound 1, Poloxamer 188:food grade GMS 50:50, T = 0 (pre-curing), 30 min): 11.0%
Release rate (percentage of Compound 1 released) ([1]; capsule 0.04 mg Compound 1, Poloxamer 188:food grade GMS 50:50, T = 0 (pre-curing), 60 min): 18.3%
Release rate (percentage of Compound 1 released) ([1]; capsule 0.04 mg Compound 1, Poloxamer 188:food grade GMS 50:50, T = 0 (pre-curing), 120 min): 30.1%
Release rate (percentage of Compound 1 released) ([1]; capsule 0.04 mg Compound 1, Poloxamer 188:food grade GMS 50:50, T = 0 (pre-curing), 180 min): 39.6%
Release rate (percentage of Compound 1 released) ([1]; capsule 0.04 mg Compound 1, Poloxamer 188:food grade GMS 50:50, T = 0 (pre-curing), 240 min): 48.8%
Release rate (percentage of Compound 1 released) ([1]; capsule 0.04 mg Compound 1, Poloxamer 188:food grade GMS 50:50, T = 0 (pre-curing), 360 min): 64.1%
Release rate (percentage of Compound 1 released) ([1]; capsule 0.04 mg Compound 1, Poloxamer 188:food grade GMS 50:50, T = 0 (pre-curing), 480 min): 72.7%
Release rate (percentage of Compound 1 released) ([1]; capsule 0.04 mg Compound 1, Poloxamer 188:food grade GMS 50:50, T = 0 (pre-curing), 600 min): 79.8%
Release rate (percentage of Compound 1 released) ([1]; capsule 0.04 mg Compound 1, Poloxamer 188:food grade GMS 50:50, T = 0 (pre-curing), 720 min): 83.1%
Release rate (percentage of Compound 1 released) ([1]; capsule 0.04 mg Compound 1, Poloxamer 188:food grade GMS 50:50, T = 0 (pre-curing), 735 min): 84.6%
mean value (n =4) of % of Compound 1 released ([1]; 30 min): 33.0%
mean value (n =4) of % of Compound 1 released ([1]; 45 min): 64.2%
mean value (n =4) of % of Compound 1 released ([1]; 60 min): 86.0%
mean value (n = 41) of % of Compound 1 released ([1]; 30 min): 33.0%
mean value (n = 41) of % of Compound 1 released ([1]; 45 min): 64.2%
mean value (n = 41) of % of Compound 1 released ([1]; 60 min): 86.0%
release profile after curing and storage ([1]; capsule 0.04 mg Compound 1, Poloxamer 188:food grade GMS 50:50, cured 18 hours, one, two and four weeks post-curing (FIG. 6)): remained substantially the same
stabilisation of release profile by curing ([1]; capsule with research grade GMS (lower monoester content) instead of food grade GMS): curing was not as effective in stabilizing the release profile
release rate relative to immediate-release composition ([1]; capsules 0.5 mg Compound 1, Poloxamer 188:food grade GMS 70:30, 50:50 and 30:70 (FIGS. 8-10)): slower rate than the immediate-release composition
Relative bioavailability based on individual dose-adjusted Cmax ([2]; 0.06, 0.12 and 0.18 mg modified-release tablet vs immediate-release capsule): statistically significantly lower
Relative bioavailability based on individual dose-adjusted ratios of AUC(0-last) ([2]; 0.06 and 0.12 mg modified-release tablet vs immediate-release capsule): statistically significantly lower
Dose-adjusted peak plasma exposure (Cmax/D), geometric mean ratio [2, 4]: 28.7-41.2%
Dose-adjusted total plasma exposure (AUC/D), geometric mean ratio [2, 4]: 63.3-97.9%
Cmax [2, 5]: reduced the Cmax
Tmax [2, 5]: increased Tmax
total plasma concentrations [2, 5]: substantially maintaining similar total plasma concentrations
Plasma concentrations at 24 hours post-dose ([2]; modified-release tablet compared to immediate release-formulation): higher
Systemic exposure (Cmax and AUC), dose proportionality ([2]; oral modified-release tablet formulation): increased in a slightly higher than dose-proportional manner
Cmax and peak-trough fluctuation [3]: high Cmax and peak-trough fluctuation
